Read-outs that look alike come from different tables or passages of the source.
Assays:
Format in all cases: cell-based
P. aeruginosa = settings: fragments of CEMA
Protocol: (§1) The minimum inhibitory concentrations (MIC) of CEME, CEMA and melittin were determined for a number of different bacteria (Table 2). Briefly, cells were grown overnight at 37° C. in LB-S (Luria broth without any salt supplement) and diluted one in 10,000 in the same medium to give concentrations of about 10^4 to 10^5 CFU/ml. The broth dilutions were set up in a 96 well microtiter plate by putting 200 μl of LB-S containing the initial concentration of antibiotic or compound in column 1 and 100 μl of the same medium in columns 2-12. The compounds were diluted by taking 100 μl of broth from column 1 and mixing it with column 2, resulting in a one in two dilution. This was continued to column 10. Finally, 10 μl of bacteria were pipetted into columns 1-11, and the plates incubated overnight at 37° C. The next day the plates were scored for growth in the wells, and the MIC determined.

E. coli = test system: E. coli
Protocol: as §1

S. aureus = settings: fragments of CEMA
Protocol: as §1

Candida albicans = test: MIC broth dilution; settings: fragments of CEMA
Protocol: as §1
Consequently, although CEMA is an effective antimicrobial agent, the individual fragments have no antimicrobial (or anti-fungal) activity.

E. coli strain DC2 = test: gel overlay antibacterial activity assay; settings: gel overlaid with ≈10^5 E. coli strain DC2, overnight at 37° C.
Protocol: A sample of the partially purified CEME protein was electrophoresed on a 15% acid-urea gel, which separates proteins based on charge and mass (Panyim and Chalkey, Arch. Biochem. Biophys., 130:337, 1969). The pH of the buffer is acidic (=pH 5.0) and the polarity is reversed such that proteins migrate to the cathode. Therefore, the small cationic peptides run relatively quickly through the gel and thus can be easily identified. Antibacterial activity was tested as previously described (Hultmark, Eur. J. Biochem., 106:7, 1980). The gel was incubated in Mueller Hinton broth+0.2M NaPO4 pH 7.4 for 1 hr. It was overlaid with 5 mls of the same media containing 0.6% agar and ≈10^5 E. coli strain DC2, and then again with 5 ml of the same media containing only 0.6% agar. […] Melittin is used as a positive control due to its antibacterial activity and similarity in size and PI values.

P. AERUGINOSA H309 [1] = test: lysozyme lysis assay (membrane permeabilization); settings: 50 μg/ml lysozyme, decrease in OD600, FIG. 5
Protocol: Membrane permeabilization by polycationic compounds was measured in two different assays. The first assay measured membrane disruption by the ability of lysozyme to reach the periplasm and cause cell lysis. […] The uptake of lysozyme into whole cells due to membrane permeabilization by various compounds was previously described in Hancock, et al., Antimicrobial Agents and Chemo., 19:777, 1981. Overnight cultures of P. aeruginosa H309 or E. cloacae 218R1 grown in LB-S were diluted 1 in 50 in fresh medium and grown to an OD600 =0.5-0.6. The cells were harvested in a Silencer H-103N clinical centrifuge at 1800 g for 10 min, washed once with one volume of assay buffer (5 mM HEPES pH 7.2, 5 mM KCN), and resuspended in the same buffer to an OD600 of 0.5. Assays consisted of 600 μl of cells with 50 μg/ml of chicken egg white lysozyme and varying concentrations of cationic compounds. Cell lysis was measured as a decrease in the OD600 in a Perkin-Elmer dual beam spectrophotometer. Parallel experiments performed without lysozyme enabled the measurement of the lytic activity of the compounds themselves. To test whether or not permeability to lysozyme could be inhibited by divalent cations, various concentrations of MgCl2 were added to the assay after the addition of lysozyme and before the addition of the test compound.

P. AERUGINOSA H309 [2] = test: 1-N-phenylnaphthylamine (NPN) uptake assay; settings: 10 μM NPN, fluorescence, FIG. 7
Source text: (§2) The second assay determined membrane permeability by the ability of 1-N-phenylnaphthylamine (NPN), a small fluorescent probe, to insert itself into the membrane. Normally, very little NPN can penetrate the outer membrane, but in the presence of a membrane permeabilizer it can insert into the hydrophobic membrane resulting in an increase in fluorescence (FIGS. 7 and 8). This N-phenylnaphthylamine uptake assay was previously described by Loh, et al., Antimicrobial Agents and Chemo., 26:546, 1984. Cells were prepared exactly the same as for the lysozyme lysis assay. 1-N-phenylnaphthylamine (NPN) was dissolved in acetone at a concentration of 500 μM. NPN fluorescence was measured in a Perkin-Elmer 650-10S fluorescent spectrophotometer using excitation and emission wavelengths set to 350 nm and 420 nm respectively, with slit widths of 5 nm. The assay was standardized by adding 20 μl of NPN (final concentration of 10 μM) and 10 μl of 0.64 mg/ml of polymyxin B (final concentration of 6.4 μg/ml) into 1 ml of cells, and adjusting the resulting fluorescence to read 90% deflection (90 arbitrary units). Various compounds were tested by adding 10 μl of different concentrations to a cuvette containing 1 ml of cells and 10 μM NPN. Permeabilizing activity was designated as the total fluorescence minus the fluorescence due to NPN alone. Following the fluorescence measurement, the OD600 of the cells was taken to ensure no significant cell lysis had occurred.

RAW cells = test: RAW cell viability by Trypan blue exclusion; settings: up to 50 μg peptide
E. cloacae = settings: strain 218R1, β-lactam resistant
Protocol: as §1

S. typhimurium = test system: S. typhimurium
Protocol: as §1

E. cloacae 218R1 = test: 1-N-phenylnaphthylamine (NPN) uptake assay; settings: 10 μM NPN, fluorescence, FIG. 8
Source text: as §2

[3] = strain C590, Defensin sensitive
[4] = strain DC2, Polymyxin sensitive
[5] = strain SC9251, Parent of SC9252
[6] = strain SC9252, Polymyxin resistant

| Molecule | opening up the membrane to NPN (P. AERUGINOSA H309 [2]) | MIC (E. cloacae) [µg/mL] | MIC (S. typhimurium; strain C587, Parent of C590) [µg/mL] | MIC (S. typhimurium; [3]) [µg/mL] | MIC (E. coli; [4]) [µg/mL] | MIC (E. coli; [5]) [µg/mL] | MIC (E. coli; [6]) [µg/mL] | other results |
| --- | --- | --- | --- | --- | --- | --- | --- | --- |
| CC[C@H](C)[C@H](NC(=O)CN)C(=O)NCC(=O)N[C@@H](C)C(=O)N[C@H](C(=O)N[C@@H](CC(C)C)C(=O)N[C@@H](CCCCN)C(=O)N[C@H](C(=O)N[C@@H](CC(C)C)C(=O)N[C@H](C(=O)N[C@H](C(=O)NCC(=O)N[C@@H](CC(C)C)C(=O)N1CCC[C@H]1C(=O)N[C@@H](C)C(=O)N[C@@H](CC(C)C)C(=O)N[C@@H](CCCCN)C(=O)N[C@@H](CC(C)C)C(=O)N[C@H](C(=O)N[C@@H](CCCCN)C(=O)O)[C@@H](C)O)[C@@H](C)O)[C@@H](C)O)C(C)C)C(C)C [MA] | – | – | – | – | – | – | – | MIC (P. aeruginosa): greater than 64 ug/ml; MIC (E. coli; E. coli, fragments of CEMA): greater than 64 ug/ml; MIC (S. aureus): greater than 64 ug/ml; MIC (Candida albicans): greater than 64 ug/ml |
| CC[C@H](C)[C@H](NC(=O)CN)C(=O)NCC(=O)N[C@@H](C)C(=O)N[C@H](C(=O)N[C@@H](CC(C)C)C(=O)N[C@@H](CCCCN)C(=O)N[C@H](C(=O)N[C@@H](CC(C)C)C(=O)N[C@H](C(=O)N[C@H](C(=O)NCC(=O)N[C@@H](CC(C)C)C(=O)N1CCC[C@H]1C(=O)N[C@@H](C)C(=O)N[C@@H](CC(C)C)C(=O)N[C@H](C(=O)N[C@@H](CO)C(=O)N[C@@H](Cc1c[nH]c2ccccc12)C(=O)N[C@H](C(=O)N[C@@H](CCCCN)C(=O)N[C@@H](CCCNC(=N)N)C(=O)N[C@@H](CCCCN)C(=O)N[C@@H](CCCNC(=N)N)C(=O)N[C@@H](CCC(N)=O)C(=O)N[C@@H](CCC(N)=O)C(N)=O)[C@@H](C)CC)[C@@H](C)CC)[C@@H](C)O)[C@@H](C)O)C(C)C)C(C)C [MEL, melittin] | less active | – | – | – | – | – | – | zones of clearing on overlaid acid-urea gel (E. coli strain DC2): zones of clearing; permeabilization of outer membrane to lysozyme (P. AERUGINOSA H309 [1]): did not appear to be a good permeabilizer as compared to the other peptides |
| CC[C@H](C)[C@H](NC(=O)CNC(=O)[C@@H](NC(=O)[C@H](CCCCN)NC(=O)[C@H](CCCCN)NC(=O)[C@H](Cc1ccccc1)NC(=O)[C@H](CC(C)C)NC(=O)[C@H](CCCCN)NC(=O)[C@H](Cc1c[nH]c2ccccc12)NC(=O)[C@@H](N)CCCCN)[C@@H](C)CC)C(=O)NCC(=O)N[C@@H](C)C(=O)N[C@H](C(=O)N[C@@H](CC(C)C)C(=O)N[C@@H](CCCCN)C(=O)N[C@H](C(=O)N[C@@H](CC(C)C)C(=O)N[C@H](C(=O)N[C@H](C(=O)NCC(=O)N[C@@H](CC(C)C)C(=O)N1CCC[C@H]1C(=O)N[C@@H](C)C(=O)N[C@@H](CC(C)C)C(=O)N[C@@H](CCCCN)C(=O)N[C@@H](CC(C)C)C(=O)N[C@H](C(=O)N[C@@H](CCCCN)C(=O)O)[C@@H](C)O)[C@@H](C)O)[C@@H](C)O)C(C)C)C(C)C [CEMA] | – | – | – | – | – | – | – | RAW cell viability (RAW cells): no apparent decrease |
| gentamicin [GM] | – | 0.5 | 4 | 2 | 0.5 | 2 | 4 | – |
| polymyxin B [PX] | equally active | 0.5 | 1 | 0.25 | 0.06 | 0.06 | 4 | opening up the membrane to NPN (E. cloacae 218R1): equally active |
